Values of other authors, collected in patent US20160331866A1, “TISSUE REGENERATION MEMBRANE FOR REPAIR AND REGENERATION OF PERIPHERAL NERVE” (NATIONAL CHENG KUNG UNIVERSITY, priority 2015, published 2016).

Conditions: conventionally oral dose form
In the case of CC(c1cc2ccccc2s1)N(O)C(N)=O (stereo not shown) [Zileuton], the “concentration of the active ingredient in the blood” value (from here on “concentration”) is given as 8.46 to 25.38 µM. For CC(C)(O)c1ccccc1CC[C@@H](SCC1(CC(=O)O)CC1)c1cccc(/C=C/c2ccc3ccc(Cl)cc3n2)c1 [Montelukast], the “concentration” value is listed as 0.02 µg/mL. In the case of CC(=O)Oc1ccccc1C(=O)O [aspirin, acetylsalicylic acid], the “concentration” value is given as 832 to 1660 µM. In the case of COc1ccc2c(c1)c(CC(=O)O)c(C)n2C(=O)c1ccc(Cl)cc1 [Indomethacin], the “concentration” value is listed as 160 µM.
